Literature values in patent publication US5767071A, “Sevenmer cyclic peptide inhibitors of diseases involving αv β3” (IXSYS Incorporated, priority 1995, dated 1998).

Assays:
[1] = test system: chicken embryo tumor model
integrin αv β3 = integrin αv β3 (Homo sapiens, UniProt P05106+P06756); conditions: binding and cell adhesion assays
Sequence of integrin αv β3 (P06756 31-889 limits assumed): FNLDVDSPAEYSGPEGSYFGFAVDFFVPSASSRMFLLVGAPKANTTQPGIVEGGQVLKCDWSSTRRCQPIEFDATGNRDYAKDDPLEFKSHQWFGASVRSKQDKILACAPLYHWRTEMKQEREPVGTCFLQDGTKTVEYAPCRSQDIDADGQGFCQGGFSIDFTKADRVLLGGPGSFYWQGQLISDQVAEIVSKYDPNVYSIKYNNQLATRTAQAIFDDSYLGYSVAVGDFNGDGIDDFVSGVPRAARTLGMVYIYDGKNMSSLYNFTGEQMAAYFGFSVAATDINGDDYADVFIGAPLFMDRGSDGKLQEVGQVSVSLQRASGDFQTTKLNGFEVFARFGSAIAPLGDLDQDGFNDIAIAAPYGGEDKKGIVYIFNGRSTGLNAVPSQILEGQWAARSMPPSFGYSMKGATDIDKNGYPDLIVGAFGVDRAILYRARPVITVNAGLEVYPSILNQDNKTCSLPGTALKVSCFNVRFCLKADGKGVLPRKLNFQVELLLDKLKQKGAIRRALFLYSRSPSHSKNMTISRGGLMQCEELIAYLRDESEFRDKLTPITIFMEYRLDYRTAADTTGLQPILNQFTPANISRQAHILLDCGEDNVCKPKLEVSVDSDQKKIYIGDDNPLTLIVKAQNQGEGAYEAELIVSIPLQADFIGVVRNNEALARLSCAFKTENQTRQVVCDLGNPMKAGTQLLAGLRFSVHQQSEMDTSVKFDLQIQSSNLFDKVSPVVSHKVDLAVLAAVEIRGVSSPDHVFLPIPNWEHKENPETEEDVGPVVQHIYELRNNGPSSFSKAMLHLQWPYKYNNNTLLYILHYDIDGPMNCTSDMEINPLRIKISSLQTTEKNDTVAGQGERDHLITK
Sequence of integrin αv β3 (P06756 891-1048 limits assumed): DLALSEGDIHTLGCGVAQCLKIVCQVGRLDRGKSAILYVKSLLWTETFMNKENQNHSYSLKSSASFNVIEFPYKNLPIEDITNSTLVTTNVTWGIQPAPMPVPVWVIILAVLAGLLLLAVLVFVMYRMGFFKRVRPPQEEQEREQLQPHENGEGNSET
Sequence of integrin αv β3 (P05106 27-788): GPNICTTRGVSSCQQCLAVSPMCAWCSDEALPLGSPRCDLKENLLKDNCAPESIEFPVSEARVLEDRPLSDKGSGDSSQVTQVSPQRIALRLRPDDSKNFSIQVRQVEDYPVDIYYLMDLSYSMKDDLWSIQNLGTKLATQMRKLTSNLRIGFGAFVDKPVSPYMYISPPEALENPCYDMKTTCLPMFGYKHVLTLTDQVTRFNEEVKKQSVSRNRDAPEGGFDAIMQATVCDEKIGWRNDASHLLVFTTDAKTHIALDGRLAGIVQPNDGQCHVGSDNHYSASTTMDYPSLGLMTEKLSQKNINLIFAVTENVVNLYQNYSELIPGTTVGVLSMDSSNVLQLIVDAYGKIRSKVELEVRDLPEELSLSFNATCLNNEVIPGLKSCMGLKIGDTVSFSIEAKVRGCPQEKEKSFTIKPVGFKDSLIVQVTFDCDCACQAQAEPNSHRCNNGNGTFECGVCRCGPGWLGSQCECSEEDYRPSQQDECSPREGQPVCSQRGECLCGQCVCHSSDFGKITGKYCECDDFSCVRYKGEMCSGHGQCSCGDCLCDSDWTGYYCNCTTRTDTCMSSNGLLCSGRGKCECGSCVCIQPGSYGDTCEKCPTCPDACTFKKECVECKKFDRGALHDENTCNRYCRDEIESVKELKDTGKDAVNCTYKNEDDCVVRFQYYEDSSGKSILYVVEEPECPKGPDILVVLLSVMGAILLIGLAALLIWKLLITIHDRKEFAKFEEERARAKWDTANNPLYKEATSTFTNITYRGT

CC(C)[C@@H]1NC(=O)[C@@H](Cc2ccccc2)NC(=O)[C@H](CC(=O)O)NC(=O)CNC(=O)[C@H](CCCN=C(N)N)NC1=O [cyclo-RGDfv]
inhibition of angiogenesis / neovascularization [1]: inhibit the neovascularization process

ACPSRLDSPCG [RLD peptide from a literature phage library (Koivunen et al.)]
activity compared with an RGD peptide (integrin αv β3): 100-1000 fold lower
selectivity for the integrin αv β3 (integrin αv β3): only partially selective

Gly-Arg-Gly-Asp-Ser (GRGDS)
inhibition of angiogenesis in vitro (angiogenesis): inhibits angiogenesis in vitro
